From PMC3673830 (Cancer research, 2013)

How the values were obtained:
THP-1 [1] = assay: Luminescent ATP-based cytotoxicity assay; format: cell-based, human; settings: THP-1 (MLL/AF9)
SEMKH2 = assay: Luminescent ATP-based cytotoxicity assay; format: cell-based, human; settings: SEMKH2 (MLL/AF9)
REH = assay: Luminescent ATP-based cytotoxicity assay; format: cell-based, human
BRD2(1) = BRD2(1) (Homo sapiens, UniProt P25440); assay: Bio-Layer Interferometry; format: binding; settings: read-out: affinity
Sequence of BRD2(1) (P25440 71-194 limits assumed): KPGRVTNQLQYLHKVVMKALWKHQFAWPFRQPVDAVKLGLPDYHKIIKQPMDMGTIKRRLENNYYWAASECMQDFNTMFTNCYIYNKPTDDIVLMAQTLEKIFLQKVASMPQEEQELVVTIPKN

NOMO-1 = assay: Luminescent ATP-based cytotoxicity assay; format: cell-based, human; settings: NOMO-1 (MLL/AF9)
[2] = test system: BRD4 binding to the HOXA9 promoter; assay: Chromatin immunoprecipitation; format: cell-based, human; settings: ChIP
KASUMI-1 = assay: Luminescent ATP-based cytotoxicity assay; format: cell-based, human; settings: KASUMI-1 (AML1-ETO)
[3] = test system: CD34 positive human haematopoietic stem cells; assay: Clonogenic growth in methylcellulose; format: cell-based; settings: two different healthy donors
[4] = test system: murine MLL-AF9 leukaemic blasts; assay: Differentiation of leukaemic blasts; format: cell-based; settings: into cells with polymorphonuclear neutrophil like appearances
[5] = test system: HOXA9 mRNA in MV4;11 cells; assay: qRT-PCR of HOXA9 levels; format: cell-based, human
[6] = mouse; cited from earlier work
K-562 [7] = assay: Cell cycle analysis by flow cytometry; format: cell-based, human
CBP [8] = target: T1, CBP (Homo sapiens, UniProt Q92793); format: binding; settings: read-out: affinity; Bio-Layer Interferometry, estimated
Target sequence in this assay (Q92793 1081-1197 limits assumed): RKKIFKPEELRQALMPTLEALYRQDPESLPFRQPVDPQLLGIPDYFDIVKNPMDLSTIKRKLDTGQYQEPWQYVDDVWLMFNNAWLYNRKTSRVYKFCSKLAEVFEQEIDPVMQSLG

THP-1 [9] = assay: Clonogenic growth in methylcellulose; format: cell-based, human
SUPB-15 = assay: Luminescent ATP-based cytotoxicity assay; format: cell-based, human
NALM-17 = assay: Luminescent ATP-based cytotoxicity assay; format: cell-based, human
K-562 cells [10] = assay: Western blot analysis of treated cells; format: cell-based, human
CBP [11] = target: T1, CBP; assay: ALPHA screen; format: binding
Target sequence in this assay (Q92793 1085-1192 limits assumed): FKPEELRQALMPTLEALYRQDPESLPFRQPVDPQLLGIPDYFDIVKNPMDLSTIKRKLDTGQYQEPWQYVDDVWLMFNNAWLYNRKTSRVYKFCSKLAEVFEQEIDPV

MV4;11 cells [12] = test system: MV4;11 cells
MV4;11 [13] = assay: Clonogenic growth in methylcellulose; format: cell-based, human
MV4;11 [14] = assay: Cell cycle analysis by flow cytometry; format: cell-based, human
K562 = assay: Clonogenic growth in methylcellulose; format: cell-based, human
BRD2(2) = BRD2(2) (Homo sapiens, UniProt P25440); assay: ALPHA screen, acetylated histone 4 peptide displacement; format: binding; settings: read-out: potency (IC50); displacement of H4K5acK8acK12acK16ac peptide
Sequence of BRD2(2) (P25440 344-455 limits assumed): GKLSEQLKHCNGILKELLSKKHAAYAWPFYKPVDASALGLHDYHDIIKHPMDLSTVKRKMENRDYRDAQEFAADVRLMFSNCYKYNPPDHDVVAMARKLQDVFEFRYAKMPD

MV4;11 cells [15] = test system: MV4;11 cells; remark: listed apart in the source
MV4;11 [16] = assay: Luminescent ATP-based cytotoxicity assay; format: cell-based, human; settings: MV4;11 (MLL/AF4)
38 protein kinases = assay: Screening against protein kinases; format: biochemical
K-562 [17] = assay: Luminescent ATP-based cytotoxicity assay; format: cell-based, human
[18] = test system: 40 human kinases and 14 human membrane receptors; assay: Screening against kinases and membrane receptors
RS4;11 = assay: Luminescent ATP-based cytotoxicity assay; format: cell-based, human; settings: RS4;11 (MLL/AF4)
Aurora-C = settings: ref [34]–[37]; cited from earlier work
K-562 cells [19] = assay: Cytotoxicity of BET inhibitor and VX-680 combinations; format: cell-based, human; settings: data not shown
Aurora-B = settings: ref [34]–[37]; cited from earlier work
Aurora-A = settings: ref [34]–[37]; cited from earlier work

## COc1ccccc1S(=O)(=O)Nc1ccc2c(c1)CN(C)C(=O)N2 [PFI-1]
THP-1 [1]
  GI50: 4000 ± 2000 nM
SEMKH2
  GI50: 2000 ± 2000 nM
REH
  GI50: 9000 ± 4000 nM
BRD2(1)
  Kd: 111 nM
NOMO-1
  GI50: 3000 ± 3000 nM
[2]
  BRD4 occupancy of the HOXA9 promoter region: displace BRD4 from the HOXA9 promoter region
KASUMI-1
  GI50: 800 ± 1000 nM
[3]
  clonogenic growth: significantly impaired
[4]
  differentiation: rapid differentiation
[5]; after 4 h
  HOXA9 mRNA: up-regulated
[5]; incubation times of 8 h and 24 h
  HOXA9 mRNA: strongly down-regulated
[6]
  necessary effective dose in vivo: cannot be obtained in vivo
K-562 [7]
  cell cycle: not affected
CBP [8]
  Kd: ~11000 nM
THP-1 [9]
  clonogenic growth: strong ablation of clonogenic growth
SUPB-15
  GI50: 11000 ± 4000 nM
NALM-17
  GI50: 8000 ± 4000 nM
K-562 cells [10]
  PARP1 and pro-caspase 7 cleavage: neither PARP1 nor pro-caspase 7 cleavage was observed
  c-Myc levels: only a minor reduction
CBP [11]
  IC50: too weak for determination of an accurate IC50 value
MV4;11 cells [12]
  toxicity in combination with VX-680: strong cancer cell toxicity
MV4;11 [13]
  clonogenic growth: strong ablation of clonogenic growth
MV4;11 [14]
  cell cycle: G1/S arrest
K562
  cell numbers in clonogenic growth assay: significantly reduce cell numbers
  colony formation: not affected
BRD2(2)
  IC50: 98 nM
MV4;11 cells [15]
  c-Myc protein levels: significantly lower
MV4;11 cells [15]; 8 h exposure
  Aurora B protein levels: significant reduction
MV4;11 cells [15]; 24 h exposure
  PARP1 and pro-caspase 7 cleavage: strong induction
  protein levels and phosphorylation state of BAD: unaffected
MV4;11 [16]
  GI50: 1500 ± 1000 nM
38 protein kinases
  inhibitory activity: no significant inhibitory activity
K-562 [17]
  activity (growth inhibition): No significant activity
[18]
  activity: no significant activity
RS4;11
  GI50: 2000 ± 2000 nM

## Cc1cc(Nc2cc(N3CCN(C)CC3)nc(Sc3ccc(NC(=O)C4CC4)cc3)n2)[nH]n1 [VX-680]
Aurora-C
  potency: 4.6 nM
Tested cell lines
  concentrations at which apoptosis was observed: […]
  inhibitor concentration causing cell cycle arrest in G2/M phase: […]
MV4;11 cells [12]
  optimal concentration of VX-680 in combination: […]
K-562 cells [19]
  synergy with BET inhibitors: No synergy
Aurora-B
  potency: 18 nM
Aurora-A
  potency: […]
